Tests used:
[1] = test system: bvFTD patients; assay: Whole brain volume (WBV) change by MRI (Boundary Shift Integral); assay type: in vivo, human
Description: (§1) The two doses were provided in identical blister packages as visually identical oral tablets to be taken for up to 52 weeks. The primary outcome was the Addenbrookes Cognitive Examination – Revised (ACE-R). The Functional Activities Questionnaire (FAQ) and reduction in progression of whole brain atrophy were alternative co-primary outcomes. Other outcomes included: Modified Alzheimer’s Disease Cooperative Study – Clinical Global Impression of Change (Modified-CGIC) determined by a third independent rater; Frontotemporal Dementia Rating Scale (FRS); MMSE (from MMSE items incorporated into ACE-R); Addenbrookes Cognitive Examination – III (a revised version of ACE-R which excludes MMSE items subject to copyright restrictions); change in brain volume measured by MRI in frontal and temporal lobes (FTV) and lateral ventricles (LVV); and the effect of hydromethylthionine in patients with known genetic mutations associated with bvFTD. Blood was collected prospectively for the purpose of population PK analyses.
MRI scans were obtained at screening and weeks 16, 32, and 52. The acquisition protocol was standardized across sites and all data were centrally collected, quality-controlled, and analyzed by the imaging core laboratory (Bioclinica). […] For data passing quality-control, baseline volume was automatically assessed using FreeSurfer v5.3, while volume changes were assessed using Boundary Shift Integral (whole brain, lateral ventricles) and Tensor-Based Morphometry (frontal and temporal lobes). […]
The primary analyses were specified as a mixed model, repeated-measures analysis with an unstructured covariance matrix and no imputation for missing data. The model included visit (three levels corresponding to assessments at weeks 16, 32, and 52), treatment group (two levels, 4 mg or 100 mg twice a day), a visit by treatment group interaction term, use of AD-labelled medications (two levels, using or not using), geographic region (three levels: North America, Asia/Australia, Europe), and baseline value of the variable analyzed. […]

[2] = test system: subjects with AD or bvFTD; set-up: method as in Developmental Safety Update Report #3; conditions: 1713 subjects randomized to LMTM (or matching placebo), blinded, as of 14 October 2014 ref Developmental Safety Update Report #3; cited from earlier work
[3] = test system: P-glycoprotein (P-gp) transporter; set-up: method as in Investigator's Brochure; conditions: ref Investigator's Brochure; cited from earlier work
[4] = test system: bvFTD patients; assay: Addenbrookes Cognitive Examination – Revised (ACE-R), 52-week Phase III trial TRx-237-007; assay type: in vivo, human
Description: The study was designed as a 52-week Phase III, randomized, controlled, double-blind, parallel-group trial conducted between May 2013 and February 2016 at 70 sites in Canada, United States, Australia, Asia, and Europe. Eligible patients had to be younger than 80 years of age with a diagnosis of bvFTD according to criteria revised by the International bvFTD Criteria Consortium [[1, 50]], with Mini-Mental Status Examination (MMSE) score greater than or equal to 20 at screening. In order to limit inclusion of bvFTD phenocopy cases, there was an additional requirement that patients had to meet the criterion of having definite brain atrophy in frontal and/or temporal lobes scoring 2 or more on a scale previously developed by Kipps et al.. Concomitant use of acetylcholinesterase inhibitors (AChEIs) or memantine (or both) was permitted provided this was at a stable dose for at least 18 weeks before randomization to minimize any potential early symptomatic effects of these treatments. Concomitant use of antidepressant, antipsychotic (except clozapine or olanzapine), and sedative medications was also permitted at stable doses where clinically feasible. Each patient had one or more study partners participate with them in the trial as informants. […] A detailed list of inclusion and exclusion criteria is in the protocol provided in the Supplementary Material. […]
as §1, with “The primary outcome was the Addenbrookes Cognitive Examination – Revised (ACE-R). The Functional Activities Questionnaire (FAQ) and reduction in progression of whole brain atrophy were alternative co-primary outcomes.” left out, “Blood was collected prospectively for the purpose of population PK analyses.” left out

[5] = test system: AD patients; set-up: method as in PMID 31658058; conditions: cited from earlier work
[6] = test system: red blood cells; conditions: cited from earlier work
[7] = 8 mg/day, plasma levels above vs below […] threshold

CN(C)c1ccc2c(c1)Sc1cc(N(C)C)ccc1N2 [hydromethylthionine, leuco-methylthioninium bis(hydromethanesulphonate)]
WBV: Decline±SEM for LMTM 8 mg/day group ([1]; 8 mg/day, modeled change from baseline at 52 weeks): –21.64±1.56 cm^3 | reduction in whole brain atrophy [1, 7]: 42% | WBV: Difference±SEM from LMTM 8 mg/day for 200 mg/day ([1]; 200 mg/day vs 8 mg/day, 52 weeks): –1.35±2.32 cm^3 | cases of possible serotonin toxicity reported as AEs [2]: 2 | effect of coadministration on digoxin (P-gp substrate) [3]: decreased concentrations | induction of P-glycoprotein (P-gp) transporter [3]: w eak in ducer | ACE-R: Decline±SEM for LMTM 8 mg/day group ([4]; 8 mg/day (n = 110), modeled change from baseline at 52 weeks, MITT): –9.98±1.39 | reduction in decline on the ACE-R scale [4, 7]: 45% | ACE-R: Difference±SEM from LMTM 8 mg/day for 200 mg/day ([4]; 200 mg/day (n = 104) vs 8 mg/day, 52 weeks, MITT): –0.49±2.10 | steady state plasma levels with steep concentration-response relationships on cognitive and MRI outcomes in AD ([5]; 8 mg/day dose, AD ref 49): 0.3 to 0.8 ng/mL | estimated brain concentration required for pharmacological activity [5]: 0.02–0.06 μM | plasma concentration threshold (Cmax,ss) identified in mild/moderate AD [5]: 0.373 ng/mL | predicted optimal dose for treatment of AD [5]: about 16 mg/day | dose sufficient to ensure that all patients have plasma levels above the threshold required for pharmacological activity ([5]; combined AD and bvFTD populations ref 49): 16 mg/day | plasma concentrations not associated with any additional benefit in AD ([5]; doses 150–250 mg/day, AD ref 49): 4 to 21 ng/mL | efficiency of uptake into red blood cells relative to MTC [6]: 20 fold

— PMC7306898, “Concentration-Dependent Activity of Hydromethylthionine on Clinical Decline and Brain Atrophy in a Randomized Controlled Trial in Behavioral Variant Frontotemporal Dementia” (Journal of Alzheimer's Disease, 2020)
